Reference: article PMC12598616, “Design and optimization of caspase-1-responsive fluorescent probes for pyroptosis imaging and anti-pyroptosis drug screening” (Chemical Science, 2025)

System: Cas-1 in primary NP cells
Test: Intracellular imaging in nucleus pulposus cells
Type: cell-based, rat
Conditions: H2O2 2 mM 30, 60, 90 min; FPy1 5 μM 1 h
Description: With advancing age, the prevalence of degenerative bone and joint disorders (DBJDs), such as intervertebral disc degeneration (IVDD) and osteoarthritis (OA), increases markedly among middle-aged and elderly individuals.[30] Chronic inflammation has been identified as the underlying cause of DBJDs. In particular, inflammasome-mediated pyroptosis has been recognized as a primary contributor to sustained inflammatory responses.[31] Consequently, pyroptosis-associated biomarkers represent promising indicators for the diagnosis and monitoring of DBJDs. IVDD, a chronic degenerative condition closely related to natural aging, has become one of the leading causes of disability worldwide.[32] […] The imaging results indicated a positive correlation between fluorescence intensity and H2O2-stimulation time (Fig. 4b). […] Encouraged by the promising imaging results of FPy1 in NP cells and cell spheroids, we further assessed its capability for imaging pytoptosis in vivo. […] Following intradiscal injection of FPy1, the fluorescence images of the tail modeling site were obtained from the dorsal aspect. […] Histological scoring result corroborated these findings, reflecting the same trends as with fluorescence imaging observed using FPy1 (Fig. S13b). […]
The cytotoxicity of FPy1 and YPy1 to THP-1 was evaluated by cell counting kit-8 (CCK-8). […]

Q: How did the “intracellular fluorescence intensity in NP cells” value turn out when “–FLTDG– [FPy1, RhoB donor, hNR quencher]” was run?
A: increased with the duration of H2O2 stimulation
